Results as given in PubChem BioAssay AID248 (DTP/NCI, 2004).
“And” between values parts separate entries of the source, which are not always exact repeats. Equal values may be shown once. Toxic doses and inconclusive results are not listed.

Tested on: L1210 leukemia ip in BDF1 mice, survival T/C
Assay: NCI In Vivo Anticancer Drug Screen. Data for tumor model L1210 Leukemia (intraperitoneal) in B6D2F1 (BDF1) mice
Details: endpoint: mean survival time, higher = longer survival
Outline: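 In this screen, tumor-bearing mice given compound are compared to those given vehicle, and their survival values are reported as a treated-to-control quotient.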

## O=NN(CCCl)C(=O)NC1CC2CCC1C2 (centres undefined)
dose: 1.04 mg/kg/injection, schedule: Q#B X Z (ip), vehicle: other
  T/C: 96 % of control
dose: 2.0 mg/kg/injection, schedule: Q01DX001 (ip), vehicle: carboxymethylcellulose (CMC)
  T/C: 112 % of control
dose: 3.1 mg/kg/injection, schedule: Q01DX015 (ip), vehicle: other
  T/C: 114 % of control
dose: 3.12 mg/kg/injection, schedule: Q03HX008 (oral), vehicle: carboxymethylcellulose (CMC)
  T/C: 188 % of control
dose: 3.12 mg/kg/injection, schedule: Q03HX024 (oral), vehicle: carboxymethylcellulose (CMC)
  T/C: 261 % of control
dose: 4.0 mg/kg/injection, schedule: Q01DX001 (ip), vehicle: carboxymethylcellulose (CMC)
  T/C: 115 % of control
dose: 4.9 mg/kg/injection, schedule: Q01DX015 (ip), vehicle: other
  T/C: 210 % of control
dose: 6.25 mg/kg/injection, schedule: Q01DX001 (im), vehicle: other
  T/C: 112 % of control
dose: 6.25 mg/kg/injection, schedule: Q01DX001 (ip), vehicle: other
  T/C: 109 % of control and 118 % of control
dose: 6.25 mg/kg/injection, schedule: Q01DX001 (ip), vehicle: saline
  T/C: 98 % of control and 101 % of control
dose: 6.25 mg/kg/injection, schedule: Q01DX001 (iv), vehicle: other
  T/C: 105 % of control
dose: 6.25 mg/kg/injection, schedule: Q01DX001 (oral), vehicle: other
  T/C: 100 % of control
dose: 6.25 mg/kg/injection, schedule: Q01DX001 (sc), vehicle: other
  T/C: 114 % of control
dose: 6.25 mg/kg/injection, schedule: Q03DX Z (ip), vehicle: other
  T/C: 156 % of control
dose: 6.25 mg/kg/injection, schedule: Q03HX008 (oral), vehicle: carboxymethylcellulose (CMC)
  T/C: 188 % of control
dose: 6.25 mg/kg/injection, schedule: Q07DX Z (ip), vehicle: other
  T/C: 121 % of control
dose: 8.0 mg/kg/injection, schedule: Q01DX001 (ip), vehicle: carboxymethylcellulose (CMC)
  T/C: 124 % of control
dose: 8.0 mg/kg/injection, schedule: Q01DX009 (ip), vehicle: carboxymethylcellulose (CMC)
  T/C: 227 % of control
dose: 8.0 mg/kg/injection, schedule: Q01DX009 (oral), vehicle: carboxymethylcellulose (CMC)
  T/C: 227 % of control
dose: 8.0 mg/kg/injection, schedule: Q04DX003 (ip), vehicle: carboxymethylcellulose (CMC)
  T/C: 150 % of control
dose: 8.33 mg/kg/injection, schedule: Q#B X Z (ip), vehicle: other
  T/C: 105 % of control
dose: 9.6 mg/kg/injection, schedule: Q## X032 (ip), vehicle: other
  T/C: 150 % of control
dose: 12.0 mg/kg/injection, schedule: Q01DX001 (ip), vehicle: carboxymethylcellulose (CMC)
  T/C: 124 % of control
dose: 12.5 mg/kg/injection, schedule: Q01DX001 (ip), vehicle: other
  T/C: 150 % of control
dose: 12.5 mg/kg/injection, schedule: Q01DX001 (ip), vehicle: saline
  T/C: 103 % of control and 106 % of control
dose: 12.5 mg/kg/injection, schedule: Q01DX001 (sc), vehicle: other
  T/C: 151 % of control
dose: 12.5 mg/kg/injection, schedule: Q03DX Z (ip), vehicle: other
  T/C: 235 % of control
dose: 12.5 mg/kg/injection, schedule: Q04DX003 (oral), vehicle: carboxymethylcellulose (CMC)
  T/C: 177 % of control
dose: 12.5 mg/kg/injection, schedule: Q07DX Z (ip), vehicle: other
  T/C: 179 % of control
dose: 14.5 mg/kg/injection, schedule: Q## X001 (ip), vehicle: other
  T/C: 172 % of control
dose: 15.0 mg/kg/injection, schedule: Q## X032 (ip), vehicle: other
  T/C: 158 % of control
dose: 16.0 mg/kg/injection, schedule: Q01DX001 (ip), vehicle: carboxymethylcellulose (CMC)
  T/C: 179 % of control
dose: 16.0 mg/kg/injection, schedule: Q01DX015 (ip), vehicle: other
  T/C: 261 % of control
dose: 16.0 mg/kg/injection, schedule: Q04DX003 (ip), vehicle: carboxymethylcellulose (CMC)
  T/C: 193 % of control
dose: 25.0 mg/kg/injection, schedule: Q01DX001 (im), vehicle: other
  T/C: 214 % of control
dose: 25.0 mg/kg/injection, schedule: Q01DX001 (ip), vehicle: carboxymethylcellulose (CMC)
  T/C: 196 % of control
dose: 25.0 mg/kg/injection, schedule: Q01DX001 (ip), vehicle: other
  T/C: 220 % of control
dose: 25.0 mg/kg/injection, schedule: Q01DX001 (oral), vehicle: other
  T/C: 210 % of control
dose: 25.0 mg/kg/injection, schedule: Q01DX001 (sc), vehicle: other
  T/C: 227 % of control
dose: 25.0 mg/kg/injection, schedule: Q03HX008 (ip), vehicle: carboxymethylcellulose (CMC)
  T/C: 107 % of control
dose: 25.0 mg/kg/injection, schedule: Q03HX008 (oral), vehicle: carboxymethylcellulose (CMC)
  T/C: 155 % of control
dose: 25.0 mg/kg/injection, schedule: Q03HX024 (oral), vehicle: carboxymethylcellulose (CMC)
  T/C: 150 % of control
dose: 25.0 mg/kg/injection, schedule: Q03HX040 (ip), vehicle: carboxymethylcellulose (CMC)
  T/C: 114 % of control
dose: 25.0 mg/kg/injection, schedule: Q04DX005 (ip), vehicle: carboxymethylcellulose (CMC)
  T/C: 186 % of control
dose: 26.0 mg/kg/injection, schedule: Q01DX001 (ip), vehicle: carboxymethylcellulose (CMC)
  T/C: 162 % of control
dose: 29.0 mg/kg/injection, schedule: Q01DX001 (ip), vehicle: other
  T/C: 180 % of control and 240 % of control
dose: 29.25 mg/kg/injection, schedule: Q01DX001 (oral), vehicle: other
  T/C: 156 % of control and 160 % of control
dose: 29.25 mg/kg/injection, schedule: Q## X001 (oral), vehicle: other
  T/C: 196 % of control
dose: 30.0 mg/kg/injection, schedule: Q01DX001 (oral), vehicle: other
  T/C: 229 % of control
dose: 32.0 mg/kg/injection, schedule: Q01DX009 (ip), vehicle: carboxymethylcellulose (CMC)
  T/C: 196 % of control
dose: 32.0 mg/kg/injection, schedule: Q01DX009 (oral), vehicle: carboxymethylcellulose (CMC)
  T/C: 187 % of control
dose: 32.4 mg/kg/injection, schedule: Q01DX001 (ip), vehicle: carboxymethylcellulose (CMC)
  T/C: 109 % of control
dose: 35.0 mg/kg/injection, schedule: Q## X032 (ip), vehicle: other
  T/C: 158 % of control
dose: 40.0 mg/kg/injection, schedule: Q01DX001 (ip), vehicle: carboxymethylcellulose (CMC)
  T/C: 191 % of control
dose: 50.0 mg/kg/injection, schedule: Q01DX001 (ip), vehicle: saline
  T/C: 242 % of control
dose: 50.0 mg/kg/injection, schedule: Q01DX009 (oral), vehicle: carboxymethylcellulose (CMC)
  T/C: 200 % of control
dose: 50.0 mg/kg/injection, schedule: Q04DX005 (ip), vehicle: carboxymethylcellulose (CMC)
  T/C: 230 % of control
dose: 50.0 mg/kg/injection, schedule: Q07DX Z (ip), vehicle: other
  T/C: 223 % of control
dose: 50.0 mg/kg/injection, schedule: Q## X009 (ip), vehicle: carboxymethylcellulose (CMC)
  T/C: 190 % of control
dose: 53.0 mg/kg/injection, schedule: Q## X032 (ip), vehicle: other
  T/C: 121 % of control
dose: 54.0 mg/kg/injection, schedule: Q01DX001 (ip), vehicle: carboxymethylcellulose (CMC)
  T/C: 115 % of control
dose: 64.0 mg/kg/injection, schedule: Q01DX005 (ip), vehicle: carboxymethylcellulose (CMC)
  T/C: 119 % of control
dose: 64.0 mg/kg/injection, schedule: Q01DX009 (ip), vehicle: carboxymethylcellulose (CMC)
  T/C: 123 % of control
dose: 64.0 mg/kg/injection, schedule: Q01DX009 (oral), vehicle: carboxymethylcellulose (CMC)
  T/C: 106 % of control
dose: 64.0 mg/kg/injection, schedule: Q04DX003 (ip), vehicle: carboxymethylcellulose (CMC)
  T/C: 118 % of control
dose: 66.0 mg/kg/injection, schedule: Q## X004 (ip), vehicle: other
  T/C: 191 % of control
dose: 88.0 mg/kg/injection, schedule: Q01DX001 (oral), vehicle: other
  T/C: 167 % of control
dose: 90.0 mg/kg/injection, schedule: Q01DX001 (ip), vehicle: carboxymethylcellulose (CMC)
  T/C: 242 % of control
dose: 100.0 mg/kg/injection, schedule: Q01DX001 (ip), vehicle: carboxymethylcellulose (CMC)
  T/C: 227 % of control
dose: 100.0 mg/kg/injection, schedule: Q01DX001 (ip), vehicle: other
  T/C: 225 % of control
dose: 100.0 mg/kg/injection, schedule: Q01DX001 (oral), vehicle: carboxymethylcellulose (CMC)
  T/C: 245 % of control
dose: 100.0 mg/kg/injection, schedule: Q01DX001 (oral), vehicle: other
  T/C: 190 % of control
dose: 100.0 mg/kg/injection, schedule: Q01DX001 (sc), vehicle: other
  T/C: 221 % of control
dose: 100.0 mg/kg/injection, schedule: Q01DX005 (ip), vehicle: carboxymethylcellulose (CMC)
  T/C: 108 % of control
dose: 100.0 mg/kg/injection, schedule: Q01DX017 (ip), vehicle: carboxymethylcellulose (CMC)
  T/C: 118 % of control
dose: 100.0 mg/kg/injection, schedule: Q04DX003 (oral), vehicle: carboxymethylcellulose (CMC)
  T/C: 194 % of control
dose: 100.0 mg/kg/injection, schedule: Q## X006 (oral), vehicle: carboxymethylcellulose (CMC)
  T/C: 161 % of control
dose: 100.0 mg/kg/injection, schedule: Q## X009 (ip), vehicle: carboxymethylcellulose (CMC)
  T/C: 111 % of control
dose: 117.0 mg/kg/injection, schedule: Q01DX001 (oral), vehicle: other
  T/C: 105 % of control
dose: 117.0 mg/kg/injection, schedule: Q## X001 (oral), vehicle: other
  T/C: 122 % of control
dose: 128.0 mg/kg/injection, schedule: Q01DX001 (ip), vehicle: carboxymethylcellulose (CMC)
  T/C: 104 % of control
dose: 128.0 mg/kg/injection, schedule: Q01DX001 (oral), vehicle: carboxymethylcellulose (CMC)
  T/C: 245 % of control
dose: 128.0 mg/kg/injection, schedule: Q01DX005 (ip), vehicle: carboxymethylcellulose (CMC)
  T/C: 93 % of control
dose: 187.0 mg/kg/injection, schedule: Q01DX001 (ip), vehicle: carboxymethylcellulose (CMC)
  T/C: 224 % of control
dose: 200.0 mg/kg/injection, schedule: Q01DX001 (ip), vehicle: carboxymethylcellulose (CMC)
  T/C: 94 % of control and 111 % of control
dose: 200.0 mg/kg/injection, schedule: Q01DX001 (ip), vehicle: other
  T/C: 118 % of control
dose: 200.0 mg/kg/injection, schedule: Q01DX001 (iv), vehicle: other
  T/C: 183 % of control
dose: 200.0 mg/kg/injection, schedule: Q01DX001 (oral), vehicle: carboxymethylcellulose (CMC)
  T/C: 122 % of control
dose: 200.0 mg/kg/injection, schedule: Q04DX005 (ip), vehicle: carboxymethylcellulose (CMC)
  T/C: 96 % of control
dose: 256.0 mg/kg/injection, schedule: Q01DX001 (sc), vehicle: carboxymethylcellulose (CMC)
  T/C: 109 % of control
dose: 400.0 mg/kg/injection, schedule: Q01DX001 (ip), vehicle: other
  T/C: 107 % of control
dose: 125.0 micrograms/kg/injection, schedule: Q03HX024 (ip), vehicle: carboxymethylcellulose (CMC)
  T/C: 114 % of control
dose: 250.0 micrograms/kg/injection, schedule: Q03HX024 (ip), vehicle: carboxymethylcellulose (CMC)
  T/C: 165 % of control
dose: 2000.0 micrograms/kg/injection, schedule: Q03HX008 (ip), vehicle: carboxymethylcellulose (CMC)
  T/C: 253 % of control
